Melting point data for 85 molecules are collected here from a melting point compilation (Tetko et al.; mined from patent text by program, amines drawn as free bases though some values may be those of a salt).

For the molecule `COc1ccc(CNc2nc(OCc3ccccn3)ncc2C(=O)c2ccccn2)cc1Cl`, the melting point (commonly the temperature, or range, at which the solid turns liquid) was 81 to 84 °C. On to `CSc1ccc(C2=C(c3cccc(F)c3)C(=O)C(C)(C)O2)cc1`, for which the melting point is 106 °C. Take `O=S1CCON=C1c1nnc(-c2cccc(Cl)c2)o1` (stereo not given): the melting point was 208 to 210 °C. Next, `COC(=O)CN(CC(COc1ccc(Cl)cc1)OC(C)=O)c1ccccc1` (stereo not given): 82 °C; `CCN(C(C)=O)c1cccc(-c2ccn3ncc(C#N)c3n2)c1`: 194 to 196 °C. The molecule `CN(S(C)(=O)=O)S(=O)(=O)N=C=O` yielded a melting point of 140 °C. The value for `COc1ccc(C2=NN(c3csc(C)n3)C(=O)[C@H]3CCCC[C@@H]23)cc1OC` (relative stereo) was 135 to 137 °C; that for `COC(c1nnc2n1-c1ccc(Cl)cc1C(c1ccccc1)=NC2)C1COC(C)(C)O1` (stereo not given) was 130 to 134 °C; that for `CCCN(CCC)Cc1nc(-c2ncn3c2[C@@H]2CCCN2C(=O)c2cc(F)ccc2-3)no1` was 222 to 225 °C. The value for `CCCCCNC(=O)c1cnc2cccc(C)n2c1=O` was 112 to 116 °C; that for `CC(=O)N1CCN(Cc2ccc(O)cc2)CC1` was 130 to 132 °C; that for `COC(=O)c1ccc(CBr)c2occc12` was 73 to 80 °C. Consider `CCCCCCCCNC(=O)c1cscc1C(=O)O`, for which the melting point lay within 120 to 122 °C. In the case of `Cc1ccc(C(=O)NCC(N)=O)cc1-c1cccc2cc(Cc3cccc(C(F)(F)F)c3)sc12`, the melting point fell in the range of 165 to 166 °C.

Turning to `CC(C)CC(CO)NC(=O)C(Cc1cn(NC(=O)OCc2ccccc2)cn1)NC(=O)CCCc1ccccc1` (single isomer, unassigned; (-)), the melting point was in the range of 178 to 180 °C. The value for `NC(=O)CCC(C(=O)O)N1C(=O)c2cccc(N)c2C1=O` (stereo not given) was 165 to 167 °C. The value for `O=S(=O)(NCCCCl)c1ccc(Nc2ncnc3cc(Cl)ccc23)cc1` was 168 to 171 °C; that for `Cn1cc(C2=C(c3cn(CCCCl)c4ccccc34)C(=O)NC2=O)c2ccccc21` was 254 to 256 °C; that for `CCCC1(CCC(C)=O)Cc2cc(CC(=O)O)c(Cl)c(Cl)c2C1=O` (stereo not given) was 137 to 139 °C. The molecule `CC(C)(C)OCCOc1cc(N)c([N+](=O)[O-])cc1I` showed a melting point of 144 to 146 °C. Take `COC(=O)CCCCCCCCCCCCCCCCCCCN1C(=O)c2ccccc2C1=O`: the melting point lay in the range of 86.5 to 87.5 °C. `CC(CO)(c1ccc(Cl)cc1)N1CCN(c2ccc(CO)c(Cl)c2)CC1` (stereo not given) displayed a melting point of 126 to 130 °C. Next, `Cc1sc(N)nc1-c1ccc(CCN2CCN(c3cccc4ccccc34)CC2)cc1`: 160 to 165 °C; `CC(C)Nc1nc(Cl)nc(Cl)n1`: 46 to 47 °C; `Fc1ccc(-c2ncn(C3CCNCC3)c2-c2ccnc(Oc3ccc(Oc4ccccc4)cc3)n2)cc1`: 174 to 175 °C. The value for `Cc1ccc(-n2nc(Sc3ccc(Cl)cc3)c(C)c(C#N)c2=O)cc1` was 190 to 192 °C; that for `CCN(CC)S(=O)(=O)c1ccc(-c2cnc3[nH]c(CCc4cc(OC)ccn4)nc3c2)cc1` was 127 to 129 °C; that for `CCOC(=O)c1cc2c(nc1COc1ccc(C(=O)O)cc1)CCCCC2` was 135 to 136 °C. For the molecule `COc1ccc(CCC#N)cc1OC`, the melting point fell in the range of 45 to 48 °C. The value for `CC1(CN2CCC(C(=O)c3ccc(C(F)(F)F)cc3)CC2)Cn2cc([N+](=O)[O-])nc2O1` (stereo not given) was 172 to 174 °C; that for `CC1(C)NC(=O)CN1C(=O)CNC(=O)CN1CCCC1=O` was 229 to 231 °C. Turning to `NC(=O)c1cccc(CCN2CC=C(c3c[nH]c(-c4ccc(F)cc4)c3-c3ccncc3)CC2)c1`, the melting point lay in the range of 185 to 188 °C. The value for `Cc1cc(-c2ccnc(C(N)=O)c2)n(-c2ccc(F)cc2)n1` was 168 to 170 °C; that for `O=C(CCCN1CCN(c2cc3ccccc3cn2)CC1)c1ccc(F)cc1` was 148 to 150 °C; that for `CCOC(=O)/C=C/c1ccc(C(C)(C)C)c([N+](=O)[O-])c1` was 77 to 78 °C.

The molecule `O=C1NC(N2CCN(c3ccncc3)CC2)c2ccccc21` (stereo not given) returned a melting point of 210 to 214 °C.

As to `COC(=O)c1nc(-c2ccc(Cl)cc2F)cc(N)c1Br`, the melting point lay within 148 to 149 °C. The value for `O=C1c2ccccc2C(=O)N1CCN1CCC(=C(c2ccccc2)c2ccccc2)CC1` was 106 to 108 °C; that for `CCOC(=O)c1cc(C(=O)C(C)(C)Br)c(=O)[nH]c1C(=O)OCC` was 124 to 126 °C. `Cn1ncc([N+](=O)[O-])c1CBr` had a melting point of 71 to 73 °C. The value for `CC(Nc1nc(NNC(=O)CCCl)nc(Cl)c1-c1c(F)cccc1Cl)C(F)(F)F` (stereo not given) was 152 to 156 °C. As for `NC(CO)COc1ccc(Oc2ccccc2)cc1` (stereo not given), the melting point was 61.9 °C. The value for `COC(=O)CCn1cc(C)c(=O)[nH]c1=O` was 112 to 119 °C; that for `O=C(c1ccccc1Cl)c1cccnc1Br` was 76.3 °C; that for `CC(C)(C)OC(=O)COC1CCN(CC2CN(c3ccc(CN)cc3)C(=O)O2)CC1` (stereo not given) was 95 to 96 °C. The value for `CCN1C(=O)C(C)(C)C(=O)N(C)c2cc(CCN(CCn3cc(C)c4occc4c3=O)Cc3cc(C)nn3C)ccc21` was 171 to 173 °C; that for `O=C(N[C@H](Cc1cccc(OC(F)(F)C(F)F)c1)[C@@H](O)c1ccc(F)nc1)c1ccc(F)c2ccccc12` (racemic) was 148 to 149 °C; that for `N#CC(C#N)=NC1=C(N2CCOCC2)CCC1` was 157 to 158 °C. The value for `Cc1cc(C2=NOC(c3cc(Cl)cc(Cl)c3)(C(F)(F)F)C2)ccc1C(=O)NC1CSSC1` (stereo not given) was 73 °C; that for `CC(NC(=O)c1ccc(NC(=O)c2ccccc2SSc2ccccc2C(=O)Nc2ccc(C(=O)NC(C)C(=O)O)cc2)cc1)C(=O)O` (stereo not given) was 265 °C. `CC(C)(C)OC(=O)c1ncn2c1[C@@H]1CCCN1C(=O)c1cc(Cl)ccc1-2` showed a melting point of 157 to 158 °C. The value for `CSc1cc(C(F)(F)F)nn1-c1ccc(NC(=O)c2cccnc2F)cc1` was 167 to 168 °C; that for `COC(=O)COc1ccc(-c2ccc3c(c2)c(C)c(-c2ccccc2)n3Cc2ccccc2)cc1` was 167 to 170 °C.

The molecule `CCOC(=O)C(=O)Cc1cc(Cl)c(Cl)cc1[N+](=O)[O-]` displayed a melting point of 92 to 94 °C.

Molecule `NC(=O)c1cnc2c(NC(=O)c3c(Cl)cccc3Cl)cccc2c1` gave a melting point greater than 250 °C. As for `Cc1c(NC(=O)c2ccc(OCC3CCOC3)cc2)ccc2cc(CNCC3CCOCC3)cnc12` (stereo not given), the melting point lay within 122 to 123 °C.

With `CSc1ccc(C(=O)Cc2ccccc2)cc1F`, the melting point lay in the range of 71 to 72 °C. On to `N#Cc1ccc(C2=NOC(CO)C2)c2ccccc12` (stereo not given), for which the melting point is 138 to 139 °C. The molecule `CC1=C(C(=O)c2ccc(Cl)cc2)C(=O)C2C=CC=CC2C1=O` (stereo not given) yielded a melting point of 136 to 137 °C. Regarding `O=S(=O)(Nc1ccc(Oc2ccc3cccnc3c2)cc1)c1ccc(Cl)cc1`, the melting point amounted to 208 °C. Regarding `CCCCNC(=O)c1ccc(C(F)(F)F)c(-n2nc(CC)n(Cc3ccc(-c4ccccc4S(=O)(=O)NC(=O)OC(C)(C)C)cc3F)c2=O)c1`, the melting point lay within 114 to 116 °C. `COC(=O)CCCc1cc2cc(Cl)ccc2n1S(=O)(=O)c1ccc(N)c(N)c1` displayed a melting point of 158 to 160 °C. Turning to `CC(=O)Nc1cscc1C(=O)O`, the melting point came out at 206 °C.

In turn, `CN=C(NS(=O)(=O)c1ccc(Cl)c(Cl)c1)SC` showed a melting point of 158 to 159 °C. For `CCCCCCCN(Cc1ccc(C(C)(C)C)cc1)C(Nc1ccc(-c2ccccc2)cc1)=C1C(=O)COC1=O`, the melting point lay within 190 to 192 °C.

In turn, `OCCc1ccc(Nc2ncc3c(n2)-c2ccccc2C(c2cccc(Br)c2)C3)cc1` (stereo not given) showed a melting point of 88 to 90 °C. The value for `C=C(C)Oc1nc(NCCSCc2ccco2)ncc1Cc1ccc(C)nc1` was 47 to 48 °C; that for `CCCCCCOc1ccc2nc(-c3ccc(COC(CCCCCC)C(F)(F)F)cc3)sc2c1` (stereo not given) was 69.1 °C. As for `O=C(O)c1cccc(C(=O)Nc2ccc(-n3nc(C(F)(F)F)cc3C(F)(F)F)cc2)c1`, the melting point fell in the range of 244 to 245 °C.

In turn, `CC(C(=O)c1ccccc1)(c1ccccc1)c1ccccc1Sc1ccccc1C(C)(C(=O)c1ccccc1)c1ccccc1` (stereo not given) yielded a melting point of 101 °C. The value for `CCOC(=O)C1=C(N)N=C(OCC)C(C(=O)OCC)C1c1cccc(C#N)c1` (stereo not given) was 159 °C.

The molecule `CCn1c(=O)c2cc(O)c(O)cc2c2cc(O)c(O)cc21` came in with a melting point of 309 to 310 °C. For the molecule `CCCCC(=O)SCC(Cc1ccccc1)C(=O)Nc1cccc(C(=O)O)c1C` (stereo not given), the melting point lay within 113 to 114 °C. Molecule `COP(=S)(OC)Oc1nc(OCc2ccccc2)sc1C#N` gave a melting point of 47 °C.

With `COC(=O)C(=O)c1ccc(OCCOc2cc3ccccc3cc2O)cc1`, the melting point is 177 to 178 °C. In turn, `CSc1ccc([N+](=O)[O-])c(C(=O)NCC2CCN(C(c3ccccc3)c3ccccc3)CC2)c1` came in with a melting point of 179 to 181 °C. The value for `CCCC12CCC3C4=C(CCC3C1CCC2O)CC(OC)=CC4` (stereo not given) was 153 to 156 °C; that for `O=C(O)c1cnn(-c2c(Cl)cc(C(F)(F)F)cc2Cl)n1` was 155 to 157 °C; that for `O=[N+]([O-])c1cccc(Nc2nccc(Sc3cccc(Br)c3)n2)c1` was 208 to 209 °C. Next, `CC(=O)Nc1ccc(S(=O)(=O)N(C)c2ccc(O)cc2)cc1`: 202 to 203 °C; `CCCCn1c(=O)n(CCCCC(C)=O)c(=O)c2c1ncn2CC(C)=O`: 87 °C; `CC(=O)Oc1ccc(C(=O)c2cccc(OC(C)=O)c2)cc1`: 81 to 83 °C. On to `O=C(Nc1ccc(S(=O)(=O)c2ccccn2)cc1)C(O)(C(F)(F)F)C(F)(F)F`, for which the melting point was 199 to 200 °C. `CC(=O)OCc1cn(-c2ccccc2)nc1OCc1ccccc1` yielded a melting point of 74 to 75 °C. As for `COC(=O)c1ccc(NCc2ccc(F)cc2)cn1`, the melting point was in the range of 107 to 108 °C.
